Data set [1] in a line: in vitro. As to conditions: rat, liver microsomes. For orientation: Microsomes from liver hold many membrane-bound enzymes, among them those of drug oxidation.
Data set [2] can be described thus: in vitro. As to conditions: human, liver microsomes.
Data set [3] in a line: in vivo. As to conditions: Wistar, rat, po, 10 mg/kg.
Data set [4] in a line: in vivo. As to conditions: Wistar, rat, po, 3 mg/kg.
A short description of data set [5]: in vivo. The following applies: Wistar, rat, po, 3 mg/kg. This is another data set of the same source.
The nature of data set [6]: in vivo. The following applies: Wistar, rat, iv, 1 mg/kg.
Data set [7] can be described thus: in vivo. As to conditions: Wistar, rat.

Take `COCCCN1CCC(CNC(=O)c2cccn3nc(C(C)C)nc23)CC1`: the results for the metabolised at 0.5 h in data set [1] and in data set [2] were 23.4% and 2.7%, respectively.
With `CC(C)c1nc(C(=O)NCC2C3CN(C4CCOCC4)CC23)n2ccccc12` (stereo unspecified), the metabolised at 0.5 h is 0% in data set [1] and 24.4% in data set [2]. In data set [3] (brain), this compound gave a Kp at 1 h of 4. Also, the Cmax (commonly the highest concentration seen after dosing) in data set [4] was 60 ng/mL. Also, the bioavailability (commonly dose-corrected exposure relative to a reference, in per cent) in data set [5] is 15%. Moreover, the clearance (in general, a measure of how efficiently the substance is removed, as volume per time) in data set [6] is 62 mL/min/kg. Moreover, the AUC (in general, the area under the concentration-time curve, a measure of exposure) in data set [7] is 121 ng·h/mL.
On to `OC1(CN2CCC(COc3noc4cccc(O[C@@H]5CCOC5)c34)CC2)CCOCC1` [PF-04995274], for which the metabolised at 0.5 h stood at 87.3% in data set [1] and 71.9% in data set [2]. The Kp at 1 h in data set [3] (brain and plasma) was found to be 0.7. Also, the Cmax in data set [4] came out at 85 ng/mL. Moreover, the bioavailability in data set [5] amounted to 5.4%. This compound also registered a clearance in data set [6] of 29 mL/min/kg. The compound further gave an AUC in data set [7] of 94 ng·h/mL.
For the compound `COCCCN1CCC(NC(=O)c2cc(Cl)c(N)c3c2OCC3)CC1` [PRUCALOPRIDE], the metabolised at 0.5 h was found to be 36.9% in data set [1] and 22.1% in data set [2]. Besides, in data set [4], the Cmax worked out at 285 ng/mL. This compound also came in with a bioavailability in data set [5] of 84%. Moreover, the clearance in data set [6] turned out to be 113 mL/min/kg. For the same compound, the AUC in data set [7] was found to be 828 ng·h/mL.
In the case of `CC(C)n1c(=O)c(C(=O)NCCCN2CCCCC2)c(O)c2ccsc21` [PRX-03140], the metabolised at 0.5 h in data set [1] turned out to be 36.9%; in data set [2], 22.1%. This compound also yielded a Kp at 1 h in data set [3] (brain and plasma) of 1.5. The same compound registered a bioavailability in data set [5] of 2%.

The values are drawn from ChEMBL document CHEMBL4184335, “Synthesis, Structure-Activity Relationships, and Preclinical Evaluation of Heteroaromatic Amides and 1,3,4-Oxadiazole Derivatives as 5-HT4 Receptor Partial Agonists” (J Med Chem, 2018).
